In US12378224B2 (Dong-A Socio Holdings Co., Ltd., priority 2016, dated 2025) one finds IC50 data, which are given here for 22 compounds.

This experiment addresses human c-MER catalytic domain (Homo sapiens (Human), UniProt Q12866). Put plainly: TR-FRET Kinase Activity Biochemical Assay (LanthaScreen). As to conditions: 10 uM ATP, 1 hour, kinase not given. The text has this:
For the SAR (structure-activity relationship) and compound screening, LanthaScreen™ TR-FRET (Time-Resolved fluorescence energy transfer) assay was employed using the phospho-tyrosine specific Terbium (Tb)-labelded antibody with a fluorescein labeled poly-GT (glutamate-tyrosine) as a substrate. Upon excitation at 340 nm by UV, the energy from Tb donor of the antibody is transferred to the fluorescein of the phosphorylated poly GT substrate, and fluorescein emits light at 520 nm. The ratio between the intensity of […] was used to quantify the level of kinase activity. The recombinant proteins of human c-MER and AXL catalytic domains, Fluorescein-labeled poly-GT substrate, Tb-labeled anti-phosphorylated tyrosine antibodies, the kinase assay buffer, and 0.5M EDTA solution were purchased (Life technologies, USA). The TR-FRET assays were carried out in the white low volume 384-well plate (Corning, USA). […] 10 mM EDTA was added to terminate the enzyme reaction, and the level of phosphorylation of poly-GT substrate was determined following 30 min incubation with 2 nM Tb-labeled antibody. The fluorescence intensity was measured with Envision™ plate reader (PerkinElmer, USA).

Chain of human c-MER catalytic domain (Q12866 587-858): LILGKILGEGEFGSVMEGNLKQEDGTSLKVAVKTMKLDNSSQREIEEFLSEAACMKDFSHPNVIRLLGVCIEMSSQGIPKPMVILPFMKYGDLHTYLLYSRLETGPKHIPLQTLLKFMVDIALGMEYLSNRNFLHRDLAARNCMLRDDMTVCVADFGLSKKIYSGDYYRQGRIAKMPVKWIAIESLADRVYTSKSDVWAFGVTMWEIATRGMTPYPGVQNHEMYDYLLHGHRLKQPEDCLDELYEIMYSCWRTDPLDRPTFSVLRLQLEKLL

`COc1ccccc1CN1CC[C@@H](NC(=O)c2cc(-c3cnn(C4CCNCC4)c3)cnc2N)C1` [Example 167, (R)-2-amino-N-(1-(2-methoxybenzyl)pyrrolidin-3-yl)-5-(1-(piperidin-4-yl)-1H-pyrazol-4-yl)nicotinamide] showed an IC50 of 0.1 to 1 µM.

Take `Cn1cc(-c2cnc(N)c(C(=O)N[C@@H]3CCN(CC(=O)c4ccccc4)C3)c2)cn1` [Example 215, (R)-2-amino-5-(1-methyl-1H-pyrazol-4-yl)-N-(1-(2-oxo-2-phenylethyl)pyrrolidin-3-yl)nicotinamide]: the IC50 was above 1 µM. Compound `COc1cccc(CN2CC[C@@H](NC(=O)c3cc(-c4cnn(C)c4)cnc3N)C2)c1OC` [Example 217, (R)-2-amino-N-(1-(2,3-dimethoxybenzyl)pyrrolidin-3-yl)-5-(1-methyl-1H-pyrazol-4-yl)nicotinamide] had an IC50 of 0.1 to 1 µM. The compound `Cn1cc(-c2cnc(N)c(C(=O)N[C@@H]3CCN(Cc4cccc(Oc5ccccc5)c4)C3)c2)cn1` [Example 221, (R)-2-amino-5-(1-methyl-1H-pyrazol-4-yl)-N-(1-(3-phenoxybenzyl)pyrrolidin-3-yl)nicotinamide] came in with an IC50 above 1 µM. On to `Cn1cc(-c2cnc(N)c(C(=O)N[C@@H]3CCN(Cc4cccc(OCc5ccccc5)c4)C3)c2)cn1` [Example 222, (R)-2-amino-N-(1-(3-(benzyloxy)benzyl)pyrrolidin-3-yl)-5-(1-methyl-1H-pyrazol-4-yl)nicotinamide], for which the IC50 is 0.1 to 1 µM. As for `Cn1cc(-c2cnc(N)c(C(=O)N[C@@H]3CCN(Cc4cc(Cl)cc(Cl)c4O)C3)c2)cn1` [Example 223, (R)-2-amino-N-(1-(3,5-dichloro-2-hydroxybenzyl)pyrrolidin-3-yl)-5-(1-methyl-1H-pyrazol-4-yl)nicotinamide], the figure is 0.1 to 1 µM. `Cn1cc(-c2cnc(N)c(C(=O)N[C@@H]3CCN(CCc4cccc(Br)c4)C3)c2)cn1` [Example 234, (R)-2-amino-N-(1-(3-bromophenethyl)pyrrolidin-3-yl)-5-(1-methyl-1H-pyrazol-4-yl)nicotinamide] had an IC50 of 0.1 to 1 µM.

With `Nc1ncc(-c2ccc(C(=O)N3CCOCC3)cc2)cc1C(=O)N[C@@H]1CCN(Cc2ccc(Cl)cc2)C1` [Example 235, (R)-2-amino-N-(1-(4-chlorobenzyl)pyrrolidin-3-yl)-5-(4-(morpholine-4-carbonyl)phenyl)nicotinamide], the IC50 fell in the range of 0.1 to 1 µM. On to `CN1CCN(Cc2ccc(-c3cnc(N)c(C(=O)N[C@@H]4CCN(Cc5ccc(Cl)cc5)C4)c3)cc2)CC1` [Example 236, (R)-2-amino-N-(1-(4-chlorobenzyl)pyrrolidin-3-yl)-5-(4-((4-methylpiperazin-1-yl)methyl)phenyl)nicotinamide], for which the IC50 fell in the range of 0.1 to 1 µM. For the compound `N#Cc1ccc(-c2cnc(N)c(C(=O)N[C@@H]3CCN(Cc4ccc(Cl)cc4)C3)c2)cc1` [Example 238, (R)-2-amino-N-(1-(4-chlorobenzyl)pyrrolidin-3-yl)-5-(4-cyanophenyl)nicotinamide], the IC50 was above 1 µM. Turning to `CC(=O)N1CCC(n2cc(-c3cnc(N)c(C(=O)N[C@@H]4CCN(Cc5ccccc5)C4)c3)cn2)CC1` [Example 240, (R)-5-(1-(1-acetylpiperidin-4-yl)-1H-pyrazol-4-yl)-2-amino-N-(1-benzylpyrrolidin-3-yl)nicotinamide], the IC50 was 0.1 to 1 µM. `Cn1cc(-c2cnc(N)c(C(=O)N[C@@H]3CCN(Cc4ccccc4-c4cccc(CO)c4)C3)c2)cn1` [Example 247, (R)-2-amino-N-(1-((3′-(hydroxymethyl)-[1,1′-biphenyl]-2-yl)methyl)pyrrolidin-3-yl)-5-(1-methyl-1H-pyrazol-4-yl)nicotinamide] returned an IC50 of 0.1 to 1 µM.

Regarding `Cn1cc(-c2cnc(N)c(C(=O)N[C@@H]3CCN(Cc4ccccc4-c4ccc(CO)cc4)C3)c2)cn1` [Example 248, (R)-2-amino-N-(1-((4′-(hydroxymethyl)-[1,1′-biphenyl]-2-yl)methyl)pyrrolidin-3-yl)-5-(1-methyl-1H-pyrazol-4-yl)nicotinamide], the IC50 lay in the range of 0.1 to 1 µM. As for `Cn1cc(-c2cnc(N)c(C(=O)N[C@@H]3CCN(Cc4ccc(F)c(-c5ccccc5)c4)C3)c2)cn1` [Example 249, (R)-2-amino-N-(1-((6-fluoro-[1,1′-biphenyl]-3-yl)methyl)pyrrolidin-3-yl)-5-(1-methyl-1H-pyrazol-4-yl)nicotinamide], the figure is 0.1 to 1 µM; as for `Cn1cc(-c2cnc(N)c(C(=O)N[C@@H]3CCN(Cc4ccc(F)c(C5=CCNCC5)c4)C3)c2)cn1` [Example 252, (R)-2-amino-N-(1-(4-fluoro-3-(1,2,3,6-tetrahydropyridin-4-yl)benzyl)pyrrolidin-3-yl)-5-(1-methyl-1H-pyrazol-4-yl)nicotinamide], above 1 µM; as for `CN1CCN(Cc2ccc(-c3cccc(CCN4CC[C@@H](NC(=O)c5cc(-c6cnn(C)c6)cnc5N)C4)c3)cc2)CC1` [Example 253, (R)-2-amino-5-(1-methyl-1H-pyrazol-4-yl)-N-(1-(2-(4′-((4-methylpiperazin-1-yl)methyl)-[1,1′-biphenyl]-3-yl)ethyl)pyrrolidin-3-yl)nicotinamide], above 1 µM. With `CN(C)Cc1ccc(-c2cccc(NC(=O)N3CC[C@@H](NC(=O)c4cc(-c5cnn(C)c5)cnc4N)C3)c2)cc1` [Example 266, (R)-2-amino-N-(1-((4′-((dimethylamino)methyl)-[1,1′-biphenyl]-3-yl)carbamoyl)pyrrolidin-3-yl)-5-(1-methyl-1H-pyrazol-4-yl)nicotinamide] the figure was 0.01 to 0.1 µM.

For the compound `Cn1cc(-c2cnc(N)c(C(=O)N[C@@H]3CCN(C(=O)Nc4ccc(-c5cccc(CN)c5)cc4)C3)c2)cn1` [Example 269, (R)-2-amino-N-(1-((3′-(aminomethyl)-[1,1′-biphenyl]-4-yl)carbamoyl)pyrrolidin-3-yl)-5-(1-methyl-1H-pyrazol-4-yl)nicotinamide], the IC50 lay in the range of 0.01 to 0.1 µM. Consider `CN1CCN(Cc2cccc(-c3ccc(NC(=O)N4CC[C@@H](NC(=O)c5cc(-c6cnn(C)c6)cnc5N)C4)cc3)c2)CC1` [Example 272, (R)-2-amino-5-(1-methyl-1H-pyrazol-4-yl)-N-(1-((3′-((4-methylpiperazin-1-yl)methyl)-[1,1′-biphenyl]-4-yl)carbamoyl)pyrrolidin-3-yl)nicotinamide], for which the IC50 lay within 0.1 to 1 µM. With `CN1CCN(Cc2ccc(-c3ccc(NC(=O)N4CC[C@@H](NC(=O)c5cc(-c6cnn(C)c6)cnc5N)C4)cc3)cc2)CC1` [Example 273, (R)-2-amino-5-(1-methyl-1H-pyrazol-4-yl)-N-(1-((4′-((4-methylpiperazin-1-yl)methyl)-[1,1′-biphenyl]-4-yl)carbamoyl)pyrrolidin-3-yl)nicotinamide] the figure was above 1 µM; with `Cn1cc(-c2cnc(N)c(C(=O)N[C@@H]3CCN(C(=O)Oc4cccc(-c5ccc(CCC(=O)O)cc5)c4)C3)c2)cn1` [Example 276, (R)-3-(3′-((3-(2-amino-5-(1-methyl-1H-pyrazol-4-yl)nicotinamido)pyrrolidine-1-carbonyl)oxy)-[1,1′-biphenyl]-4-yl) propanoic acid], 0.1 to 1 µM.

The compound `Cn1cc(-c2cnc(N)c(C(=O)N[C@@H]3CCN(C(=O)Oc4cccc(-c5cccc(C(=O)NCCC#N)c5)c4)C3)c2)cn1` [Example 277, 3′-((2-cyanoethyl)carbamoyl)-[1,1′-biphenyl]-3-yl (R)-3-(2-amino-5-(1-methyl-1H-pyrazol-4-yl)nicotinamido)pyrrolidine-1-carboxylate] had an IC50 of 0.1 to 1 µM.
